Reference: ChEMBL document CHEMBL1130641, “5,5-trans lactone-containing inhibitors of serine proteases: identification of a novel, acylating thrombin inhibitor” (Bioorg Med Chem Lett, 1998)

Columns and labels:
Prothrombin = Prothrombin (Homo sapiens, UniProt P00734); test: Inhibition of thrombin
Serine protease 1 = Serine protease 1 (Homo sapiens, UniProt P07477); test: Inhibition of trypsin
Coagulation factor X = Coagulation factor X (Homo sapiens, UniProt P00742); test: Compound was evaluated for the inhibition of Coagulation factor X
Chain of Coagulation factor X (P00742 41-179 limits assumed): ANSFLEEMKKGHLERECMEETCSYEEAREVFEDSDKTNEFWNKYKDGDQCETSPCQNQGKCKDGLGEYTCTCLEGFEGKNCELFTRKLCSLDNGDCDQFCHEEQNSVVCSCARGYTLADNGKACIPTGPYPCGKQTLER
Chain of Coagulation factor X (P00742 235-488 limits assumed): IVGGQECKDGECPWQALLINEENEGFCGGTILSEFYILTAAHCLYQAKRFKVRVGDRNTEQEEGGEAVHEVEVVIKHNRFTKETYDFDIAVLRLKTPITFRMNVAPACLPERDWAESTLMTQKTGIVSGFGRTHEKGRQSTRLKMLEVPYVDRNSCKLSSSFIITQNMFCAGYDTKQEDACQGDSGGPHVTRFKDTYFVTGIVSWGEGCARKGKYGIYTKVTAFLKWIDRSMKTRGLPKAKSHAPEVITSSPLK

Neutrophil elastase = biological target: T1, Neutrophil elastase (Homo sapiens, UniProt P08246); test: Compound was evaluated for the inhibition of human leukocyte elastase(HLE).
T1 sequence (P08246 whole entry): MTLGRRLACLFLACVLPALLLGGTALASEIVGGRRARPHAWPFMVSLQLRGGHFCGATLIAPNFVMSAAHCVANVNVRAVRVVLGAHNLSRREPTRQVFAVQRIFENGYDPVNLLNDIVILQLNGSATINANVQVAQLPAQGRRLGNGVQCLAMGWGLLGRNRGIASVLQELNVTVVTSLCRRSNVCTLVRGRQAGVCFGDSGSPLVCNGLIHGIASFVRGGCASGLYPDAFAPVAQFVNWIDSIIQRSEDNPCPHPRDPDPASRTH

Chain of Serine protease 1 (P07477 whole entry): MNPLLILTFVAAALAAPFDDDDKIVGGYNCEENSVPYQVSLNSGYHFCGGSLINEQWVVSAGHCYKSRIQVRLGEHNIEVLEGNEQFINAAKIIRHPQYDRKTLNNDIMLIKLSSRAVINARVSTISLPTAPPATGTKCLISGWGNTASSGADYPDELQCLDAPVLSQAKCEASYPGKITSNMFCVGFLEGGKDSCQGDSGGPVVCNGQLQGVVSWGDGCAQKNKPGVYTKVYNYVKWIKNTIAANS

Structure (SMILES) | IC50 (Prothrombin) [µM] | IC50 (Serine protease 1) [µM] | IC50 (Coagulation factor X) [µM] | IC50 (Neutrophil elastase) [µM]
O=C1O[C@H]2CCC[C@@H]2[C@@H]1Cc1ccccc1 | 73 | – | – | –
C=CC[C@H]1C(=O)O[C@H]2CCC[C@@H]21 | > 50 | – | – | –
CC(C)=CC(=O)C[C@@H]1C(=O)O[C@H]2CCC[C@@H]21 | 0.021 | – | – | –
CC(C)=CC(=O)C[C@@H]1C(=O)O[C@H]2CCCC21 (some centres not stated) | 0.019 | – | – | –
C=CC[C@@H]1C(=O)O[C@H]2CCC[C@@H]21 | 98 | – | – | –
N=C(N)c1cccc(C[C@H]2C(=O)O[C@H]3CCC[C@@H]32)c1 | > 100 | 3.3 | – | –
N=C(N)CCCC[C@H]1C(=O)O[C@H]2CCC[C@@H]21 | 0.13 | 0.04 | 10.3 | –
N=C(N)c1ccc(C[C@H]2C(=O)O[C@H]3CCC[C@@H]32)cc1 | 16.8 | 0.22 | – | –
O=C1O[C@H]2CCC[C@@H]2[C@H]1Cc1ccccc1 | 92 | – | – | –
CC(C)=CC(=O)C[C@H]1C(=O)O[C@H]2C[C@]3(C)C4=CC[C@@H]5[C@](C)(CC[C@H]6OC(=O)[C@@]56C)[C@H]4CC[C@@]3(C)[C@@H]21 | 0.046 | 0.07 | > 20 | > 10
